Laboratory results as given in US20240316022A1 (TYRA BIOSCIENCES, INC., priority 2021, published 2024).

Assays:
Assay in all cases: Kinase binding assay (kinase-tagged T7 phage, qPCR), Kd
FGFR4 = target: T1, FGFR4 (Homo sapiens, UniProt P22455); conditions: read-out: FGFR4 (Kd nM)
T1 construct: made in house; host or cells: E. coli derived from BL21, infected with T7 phage

FGFR3 = target: T2, FGFR3 (Homo sapiens, UniProt P22607); conditions: read-out: FGFR3 (Kd nM)
T2 construct: made in house; host or cells: E. coli derived from BL21, infected with T7 phage
T2 sequence (P22607 23-806): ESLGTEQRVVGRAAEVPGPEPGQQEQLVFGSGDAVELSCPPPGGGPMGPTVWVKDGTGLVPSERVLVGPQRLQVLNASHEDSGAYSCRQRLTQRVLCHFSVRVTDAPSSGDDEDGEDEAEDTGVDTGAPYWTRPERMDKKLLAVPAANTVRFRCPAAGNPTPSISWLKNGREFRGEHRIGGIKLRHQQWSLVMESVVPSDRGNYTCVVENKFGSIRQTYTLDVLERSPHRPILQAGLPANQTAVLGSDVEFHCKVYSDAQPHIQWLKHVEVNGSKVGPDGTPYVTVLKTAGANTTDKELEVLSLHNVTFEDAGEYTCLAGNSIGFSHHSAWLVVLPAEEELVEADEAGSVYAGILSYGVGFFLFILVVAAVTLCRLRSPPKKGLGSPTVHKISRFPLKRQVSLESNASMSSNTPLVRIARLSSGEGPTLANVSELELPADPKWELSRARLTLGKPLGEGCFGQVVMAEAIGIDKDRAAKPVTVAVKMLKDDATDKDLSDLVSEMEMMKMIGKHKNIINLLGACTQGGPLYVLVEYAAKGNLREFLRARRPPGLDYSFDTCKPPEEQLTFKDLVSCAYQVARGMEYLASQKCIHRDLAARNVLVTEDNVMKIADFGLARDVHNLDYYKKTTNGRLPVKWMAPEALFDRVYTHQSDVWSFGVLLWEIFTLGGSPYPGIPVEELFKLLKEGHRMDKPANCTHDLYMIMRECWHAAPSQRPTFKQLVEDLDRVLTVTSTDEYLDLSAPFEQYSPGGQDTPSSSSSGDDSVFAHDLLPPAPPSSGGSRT

FGFR2 = target: T3, FGFR2 (Homo sapiens, UniProt P21802); conditions: read-out: FGFR2 (Kd nM)
T3 construct: made in house; host or cells: E. coli derived from BL21, infected with T7 phage
T3 sequence (P21802 22-821): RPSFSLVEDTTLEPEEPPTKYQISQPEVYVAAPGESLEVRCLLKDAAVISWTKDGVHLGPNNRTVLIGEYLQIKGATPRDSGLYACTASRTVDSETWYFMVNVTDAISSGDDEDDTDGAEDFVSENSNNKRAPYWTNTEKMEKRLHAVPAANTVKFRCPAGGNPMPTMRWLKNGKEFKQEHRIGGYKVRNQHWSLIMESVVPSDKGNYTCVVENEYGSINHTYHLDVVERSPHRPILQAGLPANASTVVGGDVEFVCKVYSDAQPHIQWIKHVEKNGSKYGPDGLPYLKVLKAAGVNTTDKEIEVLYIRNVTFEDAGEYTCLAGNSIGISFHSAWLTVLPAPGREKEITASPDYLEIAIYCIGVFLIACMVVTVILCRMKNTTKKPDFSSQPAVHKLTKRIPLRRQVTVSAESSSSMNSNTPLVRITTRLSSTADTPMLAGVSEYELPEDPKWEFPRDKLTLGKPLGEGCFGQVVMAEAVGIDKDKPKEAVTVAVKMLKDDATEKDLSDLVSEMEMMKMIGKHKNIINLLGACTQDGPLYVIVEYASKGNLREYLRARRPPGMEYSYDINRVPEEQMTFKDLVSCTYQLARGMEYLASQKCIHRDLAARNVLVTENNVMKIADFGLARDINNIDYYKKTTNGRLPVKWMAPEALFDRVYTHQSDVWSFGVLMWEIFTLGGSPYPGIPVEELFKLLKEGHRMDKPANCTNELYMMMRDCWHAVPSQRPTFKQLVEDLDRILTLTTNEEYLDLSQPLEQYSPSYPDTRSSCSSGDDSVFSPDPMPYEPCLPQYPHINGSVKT

FGFR1 = target: T4, FGFR1 (Homo sapiens, UniProt P11362); conditions: read-out: FGFR1 (Kd nM)
T4 construct: made in house; host or cells: E. coli derived from BL21, infected with T7 phage
T4 sequence (P11362 22-822): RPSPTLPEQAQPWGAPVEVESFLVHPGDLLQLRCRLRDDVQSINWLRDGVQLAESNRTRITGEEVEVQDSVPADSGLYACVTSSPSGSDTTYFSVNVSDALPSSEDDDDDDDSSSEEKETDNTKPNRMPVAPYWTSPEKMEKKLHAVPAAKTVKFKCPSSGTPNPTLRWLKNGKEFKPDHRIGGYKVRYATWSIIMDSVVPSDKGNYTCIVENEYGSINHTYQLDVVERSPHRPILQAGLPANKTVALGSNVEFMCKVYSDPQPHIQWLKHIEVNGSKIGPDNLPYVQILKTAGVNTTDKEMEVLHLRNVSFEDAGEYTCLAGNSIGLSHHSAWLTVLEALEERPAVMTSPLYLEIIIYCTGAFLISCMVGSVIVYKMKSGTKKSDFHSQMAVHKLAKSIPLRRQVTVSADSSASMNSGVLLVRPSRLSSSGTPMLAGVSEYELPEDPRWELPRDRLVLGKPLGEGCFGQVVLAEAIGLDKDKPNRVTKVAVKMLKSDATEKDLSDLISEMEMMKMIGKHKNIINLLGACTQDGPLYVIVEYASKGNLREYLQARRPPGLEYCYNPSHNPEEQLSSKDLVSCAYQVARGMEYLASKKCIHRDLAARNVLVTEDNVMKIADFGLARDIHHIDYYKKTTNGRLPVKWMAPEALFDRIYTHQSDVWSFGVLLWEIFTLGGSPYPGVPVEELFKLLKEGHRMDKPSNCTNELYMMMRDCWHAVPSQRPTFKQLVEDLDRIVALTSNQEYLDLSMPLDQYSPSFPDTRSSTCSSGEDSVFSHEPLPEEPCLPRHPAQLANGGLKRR

T1 sequence (P22455 22-802): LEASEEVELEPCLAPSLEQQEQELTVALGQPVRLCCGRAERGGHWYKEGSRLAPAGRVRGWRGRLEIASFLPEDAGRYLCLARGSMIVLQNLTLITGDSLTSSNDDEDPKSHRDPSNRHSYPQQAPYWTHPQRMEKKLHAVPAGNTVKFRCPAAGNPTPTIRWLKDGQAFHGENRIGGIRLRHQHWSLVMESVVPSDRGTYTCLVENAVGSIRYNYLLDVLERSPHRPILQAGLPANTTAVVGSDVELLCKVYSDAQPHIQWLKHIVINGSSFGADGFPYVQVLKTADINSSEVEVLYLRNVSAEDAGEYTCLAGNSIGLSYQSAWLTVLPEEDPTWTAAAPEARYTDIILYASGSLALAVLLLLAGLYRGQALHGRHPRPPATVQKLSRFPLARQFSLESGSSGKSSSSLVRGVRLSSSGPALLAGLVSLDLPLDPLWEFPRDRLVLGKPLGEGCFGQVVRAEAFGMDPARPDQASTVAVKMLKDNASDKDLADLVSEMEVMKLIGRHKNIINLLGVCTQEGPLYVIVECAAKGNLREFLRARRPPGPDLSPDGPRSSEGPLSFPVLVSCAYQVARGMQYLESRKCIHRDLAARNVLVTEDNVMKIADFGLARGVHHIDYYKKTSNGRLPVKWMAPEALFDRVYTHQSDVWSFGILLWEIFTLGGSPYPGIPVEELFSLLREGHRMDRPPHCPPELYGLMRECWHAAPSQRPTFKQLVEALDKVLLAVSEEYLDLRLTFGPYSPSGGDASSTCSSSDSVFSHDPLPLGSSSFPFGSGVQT

Compound | Kd (FGFR4) | Kd (FGFR3) | Kd (FGFR2) | Kd (FGFR1)
C[C@@H](Oc1ccc2[nH]nc(-c3cnc(N)c(OC(F)(F)F)c3)c2c1)c1c(Cl)cncc1Cl [Example 32, 5-[5-[(1R)-1-(3,5-dichloro-4-pyridyl)ethoxy]-1H-indazol-3-yl]-3-(trifluoro-methoxy)pyridin-2-amine] | 0.1 to 100 nM | > 1000 nM | > 1000 nM | > 1000 nM
COc1cc(OCC2CC2)cc(-c2n[nH]c3ccc(O[C@H](C)c4c(C)cnnc4C)cc23)c1 [Example 68, 3-[3-(cyclopropyl-methoxy)-5-methoxy-phenyl]-5-[(1R)-1-(3,5-dimethylpyridazin-4-yl)ethoxy]-1H-indazole] | 0.1 to 100 nM | > 1000 nM | > 1000 nM | > 1000 nM
Cc1cc(-c2n[nH]c3ccc(O[C@H](C)c4c(C)cnnc4C)cc23)cc(C#N)n1 [Example 69, 4-[5-[(1R)-1-(3,5-Dimethylpyridazin-4-yl)ethoxy]-1H-indazol-3-yl]-6-methyl-pyridine-2-carbonitrile] | 0.1 to 100 nM | 0.1 to 100 nM | 0.1 to 100 nM | 100 to 250 nM
Cc1cnnc(C)c1[C@@H](C)Oc1ccc2[nH]nc(-c3cc(C#N)cc(OC(F)(F)F)c3)c2c1 [Example 61, 3-[5-[(1R)-1-(3,5-dimethylpyridazin-4-yl)ethoxy]-1H-indazol-3-yl]-5-(trifluoromethoxy)-benzonitrile] | 250 to 1000 nM | > 1000 nM | > 1000 nM | > 1000 nM
COc1cc2[nH]nc(-c3cc(C#N)cc(C4CC4)c3)c2cc1O[C@H](C)c1c(C)cnnc1C [Example 117, (R)-3-cyclopropyl-5-(5-(1-(3,5-dimethylpyridazin-4-yl)ethoxy)-6-methoxy-1H-indazol-3-yl)benzonitrile] | 0.1 to 100 nM | 100 to 250 nM | 250 to 1000 nM | 100 to 250 nM
COc1cc(-c2n[nH]c3ccc(O[C@H](C)c4c(Cl)cncc4Cl)cc23)cc(C#N)c1OC1CCN(C(C)C)CC1 [Example 126, 5-[5-[(1R)-1-(3,5-dichloro-4-pyridyl)ethoxy]-1H-indazol-3-yl]-2-[(1-isopropyl-4-piperidyl)oxy]-3-methoxy-benzonitrile] | 0.1 to 100 nM | 250 to 1000 nM | > 1000 nM | 250 to 1000 nM
C[C@@H](Oc1ccc2[nH]nc(-c3ccnc(NCCO)c3)c2c1)c1c(Cl)cncc1Cl [Example 36, 2-[[4-[5-[(1R)-1-(3,5-Dichloro-4-pyridyl)ethoxy]-1H-indazol-3-yl]-2-pyridyl]amino]ethanol] | 0.1 to 100 nM | 0.1 to 100 nM | 0.1 to 100 nM | 0.1 to 100 nM
C[C@@H](Oc1ccc2[nH]nc(-c3cnc4c(c3)N(C(=O)OCCCN(C)C)CCO4)c2c1)c1c(Cl)cncc1Cl [Example 43, 3-(dimethyl-amino)propyl 7-[5-[(1R)-1-(3,5-dichloro-4-pyridyl)ethoxy]-1H-indazol-3-yl]-2,3-dihydro-pyrido[2,3-b][1,4]oxazine-1-carboxylate] | 0.1 to 100 nM | 0.1 to 100 nM | 250 to 1000 nM | 250 to 1000 nM
Cc1cnnc(C)c1[C@@H](C)Oc1ccc2[nH]nc(-c3cc(C#N)cc(C4CC4)c3)c2c1 [Example 84, 3-cyclopropyl-5-[5-[(1R)-1-(3,5-dimethyl-pyridazin-4-yl)ethoxy]-1H-indazol-3-yl]benzonitrile] | 0.1 to 100 nM | 0.1 to 100 nM | 250 to 1000 nM | 250 to 1000 nM
CC(C)OC(=O)Nc1ccc(-c2n[nH]c3ccc(O[C@H](C)c4c(Cl)cncc4Cl)cc23)cn1 [Example 27, isopropyl N-[5-[5-[(1R)-1-(3,5-dichloro-4-pyridyl)ethoxy]-1H-indazol-3-yl]-2-pyridyl]carbamate] | 0.1 to 100 nM | 0.1 to 100 nM | 250 to 1000 nM | 100 to 250 nM
CCOc1cc(OC)cc(-c2n[nH]c3ccc(O[C@H](C)c4c(C)cnnc4C)cc23)c1 [Example 52, 5-[(1R)-1-(3,5-dimethylpyridazin-4-yl)ethoxy]-3-(3-ethoxy-5-methoxy-phenyl)-1H-indazole] | 0.1 to 100 nM | 100 to 250 nM | 250 to 1000 nM | > 1000 nM
C[C@@H](Oc1ccc2[nH]nc(-c3cnc4c(c3)N(C(=O)CN(C)C)CCO4)c2c1)c1c(Cl)cncc1Cl [Example 21, 1-[7-[5-[(1R)-1-(3,5-dichloro-4-pyridyl)ethoxy]-1H-indazol-3-yl]-2,3-dihydropyrido[2,3-b][1,4]oxazin-1-yl]-2-(dimethylamino)ethanone] | 0.1 to 100 nM | 250 to 1000 nM | > 1000 nM | > 1000 nM
Cc1cnnc(C)c1[C@@H](C)Oc1ccc2[nH]nc(-c3cc(C#N)cc(OCC4CC4)c3)c2c1 [Example 78, 3-(cyclopropylmethoxy)-5-[5-[(1R)-1-(3,5-dimethylpyridazin-4-yl)ethoxy]-1H-indazol-3-yl]benzonitrile] | 0.1 to 100 nM | 250 to 1000 nM | > 1000 nM | > 1000 nM
Cc1cnnc(C)c1[C@@H](C)Oc1ccc2[nH]nc(-c3cc(C#N)cc(C4CCCC4)c3)c2c1 [Example 86, 3-cyclopentyl-5-[5-[(1R)-1-(3,5-dimethylpyridazin-4-yl)ethoxy]-1H-indazol-3-yl]benzonitrile] | 250 to 1000 nM | > 1000 nM | > 1000 nM | > 1000 nM
